Reference: patent US20220395497A1, “Cancer Treatment Using Camptothecin Derivatives” (priority 2019, published 2022)
Several values for one entry are separate records, joined by “and”; a condition that tells them apart may be missing. Identical values can stand only once. Entries after “also recorded” stand apart in the source; their conditions may differ.

Test system: adults with recurrence of glioblastoma multiforme (GBM)
Assay: Phase 2 open-label study of IV AR-67 (7.5 mg/m2 once daily for 5 days, 21-day cycle) in recurrent GBM: adverse events (Safety Population, NCI-CTCAE). Cohort 1 = not received or not recently failed (>90 days) bevacizumab; Cohort 2 = recently (<90 days) failed bevacizumab
Format: in vivo, human
Conditions: for 1 related SAE, patients (%) / related SAE, No of Events / related TEAE, No of Events / ≥1 related TEAE, patients (%): possibly, probably, or definitely related
Experimental: This solution was reconstituted in dextrose 5% in water to a final concentration between 0.06-0.6 mg/mL Drug (7.5 mg/m2) was to be given until the onset of toxicity requiring discontinuation or tumor progression. Tumor response was assessed=14d after every second cycle and before every third cycle using MRI.

[1] = reGBM, single agent, infusion, N = 45

## CC[C@@]1(O)C(=O)OCc2c1cc1n(c2=O)Cc2c-1nc1ccc(O)cc1c2[Si](C)(C)C(C)(C)C [AR-67, (205)-7-tert-butyldimethysilyl-10-hydroxycamptothecin]
Cohort 1, N = 30
  TEAE NCI-CTCAE Grade 1, No of Events: 178
  TEAE NCI-CTCAE Grade 1, patients (%): (70.0) %
  TEAE NCI-CTCAE Grade 2, No of Events: 94
  TEAE NCI-CTCAE Grade 2, patients (%): (60.0) %
  TEAE NCI-CTCAE Grade 3, No of Events: 63
  TEAE NCI-CTCAE Grade 3, patients (%): (63.3) %
  TEAE NCI-CTCAE Grade 4, No of Events: 5
  TEAE NCI-CTCAE Grade 4, patients (%): (16.7) %
  TEAE NCI-CTCAE Grade 5, No of Events: 0
  TEAE Nausea, patients (%): 13.3%
  TEAE Nervous System Disorders, patients (%): (50.0) %
  TEAE Neutropenia, patients (%): 16.7%
  TEAE Neutrophil count decreased, patients (%): 16.7%
  TEAE Not Related to AR-67, No of Events: 83
  TEAE Not Related to AR-67, patients (%): (66.7) %
  TEAE Platelet count decreased, patients (%): 13.3%
  TEAE Possibly Related to AR-67, No of Events: 146
  TEAE Possibly Related to AR-67, patients (%): (66.7) %
  TEAE Probably Related to AR-67, No of Events: 76
  TEAE Probably Related to AR-67, patients (%): (40.0) %
  TEAE Psychiatric Disorders, patients (%): 30.0%
  TEAE Respiratory, Thoracic, and Mediastinal Disorders, patients (%): (30.0) %
  TEAE Thrombocytopenia, patients (%): 20%
  TEAE Vascular Disorders, patients (%): (23.3) %
  TEAE Vision blurred, patients (%): (10.0) %
  TEAE Vomiting, patients (%): 10.0%
  TEAE White blood cell count decreased, patients (%): 16.7%
  TEAE leading to death, No of Events: 16
  TEAE leading to early discontinuation, No of Events: 5
  TEAE, No of Events: 346
  severe WBC count decreased, patients (%): 10.0%
  severe neutropenia, patients (%): 16.7%
  severe neutrophil count decreased, patients (%): 10.0%
  ≥1 TEAE leading to death, patients (%): (3.3) %
  1 related SAE, patients (%): (20.0) %
  related SAE, No of Events: 10
  related TEAE, No of Events: 258
  ≥1 related TEAE, patients (%): (83.3) %
Cohort 2
  SAE blood and lymphatic system disorders, events: 3
  SAE blood and lymphatic system disorders, patients: 2
  SAE headache, patients: 2
  SAE nervous system disorders, events: 6
  SAE nervous system disorders, patients: 6
Cohort 2, N = 13
  Death, No of Events: 2
  Death, patients (%): (15.4) %
  SAE, No of Events: 14
  TEAE Blood and Lymphatic System Disorders, events: 3
  TEAE Blood and Lymphatic System Disorders, patients (%): 15.4% and 15%
  TEAE Constipation, patients (%): 15.4% and 15%
  TEAE Convulsion, patients (%): 7.7%
  TEAE Definitely Related to AR-67, No of Events: 8
  TEAE Definitely Related to AR-67, patients (%): (38.5) %
  TEAE Diarrhoea, patients (%): 15.4% and 15%
  TEAE Eye Disorders, patients (%): 7.7%
  TEAE Gastrointestinal Disorders, patients (%): 53.8%
  TEAE General Disorders and Administration Site Conditions, patients (%): 38.5%
  TEAE Intensity Life Threatening, No of Events: 1
  TEAE Intensity Life Threatening, patients (%): (7.7) %
  TEAE Intensity Mild, No of Events: 20
  TEAE Intensity Mild, patients (%): (53.8) %
  TEAE Intensity Moderate, No of Events: 18
  TEAE Intensity Moderate, patients (%): (30.8) %
  TEAE Intensity Severe, No of Events: 14
  TEAE Intensity Severe, patients (%): (61.5) %
  TEAE Investigations SOC, events: 2
  TEAE Investigations, patients (%): 7.7%
  TEAE Metabolism and Nutrition Disorders, patients (%): (15.4) %
  TEAE Musculoskeletal and Connective Tissue Disorders, patients (%): 23.1%
  TEAE NCI-CTCAE Grade 1, No of Events: 17
  TEAE NCI-CTCAE Grade 1, patients (%): (53.8) %
  TEAE NCI-CTCAE Grade 2, No of Events: 16
  TEAE NCI-CTCAE Grade 2, patients (%): (30.8) %
  TEAE NCI-CTCAE Grade 3, No of Events: 16
  TEAE NCI-CTCAE Grade 3, patients (%): (69.2) %
  TEAE NCI-CTCAE Grade 4, No of Events: 3
  TEAE NCI-CTCAE Grade 4, patients (%): (23.1) %
  TEAE NCI-CTCAE Grade 5, No of Events: 0
  TEAE Nausea, patients (%): 30.8% and 31%
  TEAE Nervous System Disorders, patients (%): 46.2%
  TEAE Neutropenia, patients (%): 7.7%
  TEAE Not Related to AR-67, No of Events: 25
  TEAE Not Related to AR-67, patients (%): (53.8) %
  TEAE Possibly Related to AR-67, No of Events: 19
  TEAE Possibly Related to AR-67, patients (%): (53.8) %
  TEAE Probably Related to AR-67, No of Events: 1
  TEAE Probably Related to AR-67, patients (%): (7.7) %
  TEAE Psychiatric Disorders, patients (%): 23.1%
  TEAE Respiratory, Thoracic, and Mediastinal Disorders, patients (%): (15.4) %
  TEAE Thrombocytopenia, patients (%): 7.7%
  TEAE Vision blurred, patients (%): 7.7%
  TEAE Vomiting, patients (%): 7.7%
  TEAE leading to death, No of Events: 1
  TEAE leading to early discontinuation, No of Events: 5
  TEAE, No of Events: 55
  ≥1 TEAE leading to death, patients (%): (7.7) %
  1 related SAE, patients (%): (38.5) %
  related SAE, No of Events: 9
  related TEAE, No of Events: 28
  ≥1 related TEAE, patients (%): (76.9) %
Safety Population
  patients with AEs documented as mild, moderate, and severe intensity (span over the three): 58-69%
Comparison with published trials of the comparator
  toxicities relative to comparator drug: reduced toxicities relative to the toxicities induced by Etirinotecan treatment; also recorded: reduced toxicities relative to the toxicities induced by Karenitecin treatment; also recorded: reduced toxicities relative to the toxicities induced by Gimatecan treatment; also recorded: reduced toxicities relative to the toxicities induced by Lomustine treatment; also recorded: does not display the severe dose limiting toxicities typical of the marketed standard, Irinotecan; also recorded: dramatically reduced toxicities relative to the toxicities induced by Irinotecan treatment
In vivo
  tolerability: generally well tolerated
Of the 10 TEAEs leading to discontinuation
  TEAEs leading to discontinuation from the nervous system disorders SOC, events: Six
reGBM, single agent, N = 45
  Diarrhoea Grades 3-5: 0%
  Nausea Grades 3-5: 2%
  Thrombocytopenia Grades 3-4: 4%
  Vomiting Grades 3-5: 0%
reGBM, single agent, N = 45, All grade 3
  Neutropenia Grades 3-4: 13%
[1]
  Diarrhoea Grade 4: 0%
  Nausea Grades 3,4: 2%
  Neutropenia Grade 4: 0%
  Vomiting Grades 3,4: 0%
